Test results published in patent EP0623346B1, “INHIBITOR FOR METASTASIS OF MALIGNANT TUMOR” (TORAY INDUSTRIES, INC., priority 1992, dated 1994).
Marks after values point to notes of the source that are not given here.

Legend:
Mouse Melanoma B16F10 = assay: Effectiveness on blood-mediated metastasis in mice of mouse melanoma B16F10 (lung metastasized nodes); assay type: in vivo, C57/BL6 mice; settings: for Number of Metastasized Nodes (mean ± standard error): simultaneously with 10^6 cells/mouse in tail vein, lung surface nodes counted after 14 days; for Metastasis Inhibition Rate (%): versus control group, p< 0.001
Method: [Effectiveness on Blood-mediated Metastasis in Mice of Mouse Melanoma B16F10]
Liquid-cultured mouse melanoma cells were transplanted in tail veins of C57/BL6 mice (6 weeks old, male) in an amount of 10^6 cells/mouse. Simultaneously, beraprost sodium salt was administered intravenously at a dose of 0.03 mg/kg, 0.1 mg/kg or 0.3 mg/kg. To a control group, phosphate buffer saline was administered. Fourteen days after the administration, mice were sacrificed and the lung was removed from each mouse. From the trachea communicating to the lung, 10% neutral buffered formalin solution was poured to inflate the lung, and the lung was immersed in 10% neutral buffered formalin solution to fix the lung. Several days later, each lung was divided and the number of the metastasized nodes on the surface of each leaf was counted with a stereoscopic microscope.
The statistical analysis of this example was carried out according to the student's t-test.

Acute toxicity test = assay type: in vivo, rats; settings: for LD50: 14 days observation, 95% reliable limit in parentheses, Litchfield-Wilcoxon Method
Method: Acute toxicity test was carried out using rats.
The numbers in parentheses indicate 95% reliable limit.

Question: What does the source list for `CC#CCC(C)[C@H](O)/C=C/[C@@H]1[C@H]2c3cccc(CCCC(=O)O)c3O[C@H]2C[C@H]1O` (mixture of isomers) [Beraprost, (±)-(1R*, 2R*, 3aS*, 8bS*)-2,3,3a,8b-tetrahydro-2-hydroxy-1-[(E)-(3S*)-3-hydroxy-4-methyl-1-octene-6-inyl]-1H-cyclopenta[b]benzofuran-5-butyric acid]?
Answer: Number of Metastasized Nodes (mean ± standard error) (Mouse Melanoma B16F10; 0.03 mg/kg intravenously): 204 ± 24; Metastasis Inhibition Rate (%) (Mouse Melanoma B16F10; 0.03 mg/kg intravenously): 48*** %; Number of Metastasized Nodes (mean ± standard error) (Mouse Melanoma B16F10; 0.1 mg/kg intravenously): 160 ± 28; Metastasis Inhibition Rate (%) (Mouse Melanoma B16F10; 0.1 mg/kg intravenously): 52*** %; Number of Metastasized Nodes (mean ± standard error) (Mouse Melanoma B16F10; 0.3 mg/kg intravenously): 167 ± 21; Metastasis Inhibition Rate (%) (Mouse Melanoma B16F10; 0.3 mg/kg intravenously): 49*** %; maximum inhibition rate of metastasis of B16F10 to mouse lungs (Mouse Melanoma B16F10; maximum over doses 0.03-0.3 mg/kg intravenously): 52%; LD50 (Acute toxicity test; Intravenous, Female): 13 (10-16) mg/kg; LD50 (Acute toxicity test; Intravenous, Male): 18 (15-22) mg/kg; LD50 (Acute toxicity test; Oral, Female): 12 (9-15) mg/kg; LD50 (Acute toxicity test; Oral, Male): 15 (13-19) mg/kg; LD50 (Acute toxicity test; Subcutaneous, Female): 7 ( 6- 9) mg/kg; LD50 (Acute toxicity test; Subcutaneous, Male): 13 (12-14) mg/kg; pathological observation, main findings (Acute toxicity test; animals that were killed, common to male and female and to all administration routes): slight to medium congestion in lung, slight to medium bleeding in glandular stomach and slight small intestine catarrh
